Where two headings read alike, the source gives them in different places.
Key:
slices of liver = assay: Maceration of liver slices by reaction compositions at 65° C.; settings: 65° C.
Protocol: Initially, a series of reaction compositions were analyzed for their ability to disaggregate a biological sample, e.g., slices of liver. These reaction compositions comprised 100 mM Tris, pH 8.0, 20 mM dithiothreitol (DTT), and optionally,1 mg/ml Proteinase K, surfactants (e.g., cationic, nonionic and anionic detergents), chaotropes, or the additive 1-methyl-2-pyrollidinone (Sigma). Each reaction compositions was placed in a tube with a slice of liver and then incubated at 65° C. The tubes were observed periodically to determine which reaction compositions were able to efficiently macerate the sample.

Liver tissue [1] = assay: Nucleic acid release from liver slices, pH 6, 45° C., 30 minutes, surfactants and additives; settings: for amount of nucleic acid released in comparison with surfactant without an additive: FIG. 7
Protocol: To compare CTACl to CTAB, those two surfactants were evaluated in parallel along with hexadecyltrimethylammonium bromide (HDTAB), hexadecyltrimethylammonium chloride (HDTACl), and Sarkosyl. Three additives, phenylglyoxal, acridine orange (e.g., Sigma #A6014), and 1-methyl-2-pyrolidinone, were also evaluated. Phenylglyoxal was tested to determine if it would reduce RNAse activity. […] 1-Methyl-2-pyrrolidinone was tested to see if it would enhance solubility of the sample by various reaction compositions.
Slices of liver-tissue (100-200 mg/sample) were placed into twenty-one Eppendorf tubes. Four hundred microliters of a reaction composition, comprising 100 mM MES, pH 6, 20 mM CaCl2, and 1 mg Proteinase K, was added to each tube.
(§1) The tubes were incubated at 45° C. for 30 minutes with mixing (Eppendorf Thermomixer, Model 5436). Surfactant: protease complexes were solubilized using methods the same as or similar to those described in Example 7. Remaining tissue fragments were removed by centrifugation using methods the same as or similar to those described in Example 7. The supernatant was phenol extracted, isopropanol precipitated, and ethanol washed using methods the same as or similar to those described in Example 6.

Liver tissue [2] = assay: Liver tissue disaggregation by 1% surfactant with or without Proteinase K at 60° C.; set-up: Tissue Disaggregation: scale not given here; settings: for Tissue Disaggregation: 60° C., 1% surfactant
Protocol: To evaluate the ability of various cationic surfactants to increase the digestion of tissue by Proteinase K, liver slices were digested using reaction compositions including one of the sixteen surfactants (shown in Table 4), both with and without Proteinase K. The reducing agent dithiothreitol (DTT) was included to evaluate the effect of reducing conditions on tissue digestion. […] One of the sixteen surfactants was added to one pair of tubes to yield a final concentration of 1% surfactant. The seventeenth pair of tubes served as non-surfactant controls. One milligram (mg) of Proteinase K was added to one tube of each of the seventeen pairs.
PK=presence or absence of Proteinase K in the reaction composition; Y=Proteinase K was present; N=Proteinase K was not present in the reaction composition.

Liver tissue [3] = assay: Nucleic acid release from liver slices, pH 6, 45° C., 20 minutes, surfactants and additives; settings: with Proteinase K, FIG. 5
Protocol: The results from Example 6 indicate that there was significant nuclease activity present in the sample. To reduce the nucleolytic activity of endogenous RNAses, the pH of the reaction composition was lowered to approximately 6.0 and the incubation temperature was decreased to 45° C. Several additives, including phenylglyoxal (Aldrich #14243-3), 1-methyl-2-pyrolidinone, RNA Later (Ambion, #7020), and Streck Tissue Fixitive (Streck Laboratories, #265138) were also tested to evaluate their effect on endogenous RNAse activity in these reaction compositions. Phenylglyoxal is known to reduce ribonuclease activity (see Takahashi, The Structure And Funtion Of Ribonuclease T1. XI. Modification Of The Single Arginine Residue In Ribonuclease T1 By Phenylglyoxal And Glyoxal, J. Biochem (Japan) 68:659-664, 1970). The product literature for RNA Later claims that the reagent stabilizes RNA in tissue and Streck Tissue Fixative is believed to preserve the integrity of tissue.
Slices of liver tissue (100-200 mg/sample) were placed into nineteen Eppendorf tubes. Four hundred microliters of a reaction composition comprising 100 mM MES (Sigma #M-5287), pH 6, 20 mM CaCl2, and 1 mg Proteinase K, was added to each tube.
The tubes were incubated at 45° C. for 20 minutes with mixing (Eppendorf Thermomixer, Model 5436). […] Undigested tissue fragments were removed by centrifugation using the methods the same as or similar to those discussed in Example 6. The supernatant was phenol extracted (saturated with 10 mM Tris HCl , pH 8, 1 mM EDTA; Sigma #P-4557), isopropanol precipitated (Aldrich #19076-4), and ethanol washed using methods the same as or similar to those described in Example 6.

Liver tissue [4] = assay: Integrity of nucleic acid released from liver slices with aurintricarboxylic acid, 55° C., 30 minutes; settings: 1% surfactant, FIG. 11
Protocol: Slices of liver tissue (77-186 mg/sample) were placed into twenty-one Eppendorf tubes. To each tube was added 400 μL of a reaction composition comprising 50 mM MES, pH 6.0, 20 mM CaCl2, and additional components as shown in Table 10.
as §1, with “55°” for “45°”, “C.” for “C. for 30 minutes”, “5436) for 30 minutes. The resulting surfactant-protease complex was” for “5436). Surfactant: protease complexes were”, “Undigested” for “Remaining”, “precipitated” for “precipitated,”

[5] = Solubility of surfactants (0.5% Sarkosyl, LDS, SDS, CTAB; 5.0% others) in salt solutions; settings: pH 6
Protocol: In certain instances, the solubility of detergents in high salt may relate to on the composition of the salt and the detergent itself. A mixing experiment was performed to examine the solubility of a variety of anionic, cationic, and nonionic surfactants in different salt compositions. […] The salt solutions contained Lil, Nal, KI, Rbl, Csl , GuSCN, GuHCl, or NaClO4, at pH 6.0 or 10.0. […] The solubility of the surfactants was scored as either soluble or insoluble. The solubility of the surfactant in the salt solution was determined initially by visual observations for cloudiness or precipitate formation. The resulting solutions were also centrifuged to verify the absence of a precipitate by the absence of a precipitate pellet.

[6] = Solubility of 1% cationic surfactants in 5M chaotropic salt solutions containing 2% Tween 20
Text: The solubilities of several cationic surfactants were examined in different chaotropic salt solutions. The cationic surfactants examined were cetyltrimethylammonium bromide (CTAB), cetyltrimethylammonium chloride (CTACl), tetradecyltrimethylammonium bromide (TTAB), tetradecyltrimethylammonium chloride (TTACl), dodecyltrimethylammonium bromide (DTAB), dodecyltrimethylammonium (DTACl), dodecylethyidimethylammonium bromide (DEDTAB), decyltrimethylammonium bromide (D10TAB), and dodecyltriphenylphosphonium bromide (DTPB). Each of the cationic surfactants tested was presented in a 1% concentration. Each of the cationic surfactants was examined in a 5M solution of one of the chaotropic salts containing 2% Tween 20. Each cationic surfactant and salt combination was tested at pH 6 (50 mM MES), pH 8 (50 mM Tris-HCl), and pH 10 (50 mM AMP).

Proteinase K = molecular target: T1, Proteinase K (Parengyodontium album, UniProt P06873); assay: Effect of surfactants on Proteinase K digestion of dye-labeled casein substrate; type: biochemical; settings: 1% surfactant, 60° C., Proteinase K 0.005-20 μg/ml
T1 construct: purchased Ambion 2546
Protocol: To test the effect of cationic surfactants on the activity of Proteinase K, a series of reaction compositions were prepared as follows. Reaction compositions comprised: Casein BoDipy conjugate (1 μg, 10 ng/μL), 10 mM Tris, pH 8, 20 mM CaCl2, 1% surfactant (shown in Table 2 below) and a dilution series of Proteinase K at concentrations of 20 μg/ml, 5 μg/ml, 1.25 μg/ml, 0.31 μg/ml, 0.078 μg/ml, 0.02 μg/ml and 0.005 μg/ml. […] Reaction tubes were incubated at 60° C. in a 96-well optical plate (MicroAmp® Optical 96-Well Reaction Plate, Applied Biosystems) and the amount of released fluorescence was measured at the indicated time points using an ABI Prism 7700.

[7] = Fifteen Minutes Incubation, Proteinase K not present (N)
[8] = Fifteen Minutes Incubation, Proteinase K present (Y)
[9] = Fifty-Two Minutes Incubation, Proteinase K not present (N)
[10] = Fifty-Two Minutes Incubation, Proteinase K present (Y)
[11] = 5M chaotropic salts, 2% Tween 20

T1 sequence (P06873 106-384): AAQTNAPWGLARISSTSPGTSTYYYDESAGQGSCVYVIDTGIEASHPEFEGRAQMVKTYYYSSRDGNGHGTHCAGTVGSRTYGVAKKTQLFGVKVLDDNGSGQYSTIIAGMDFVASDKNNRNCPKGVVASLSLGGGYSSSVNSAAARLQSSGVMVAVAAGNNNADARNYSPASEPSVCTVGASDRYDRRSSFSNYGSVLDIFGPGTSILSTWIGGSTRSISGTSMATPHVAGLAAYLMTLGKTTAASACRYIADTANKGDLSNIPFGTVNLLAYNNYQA

CN1CCCC1=O [1-methyl 2-pyrrolidinone, 1-methyl-2-pyrolidinone]
maceration of liver slice (slices of liver; No Proteinase K, 16-24 hr, additive 2%): 0% | amount of nucleic acid released in comparison with surfactant without an additive (Liver tissue [1]; 10% additive with 1% CTACl): greater | amount of nucleic acid released in comparison with surfactant without an additive (Liver tissue [1]; 10% additive with 1% HDTAB): less

CCCCCCCCCCCCCCCC[N+](C)(C)C.[Br-] [CTAB, cetyltrimethylammonium bromide]
maceration of liver slice (slices of liver; 1 mg/ml Proteinase K, 16-24 hr, additive 0.1%): 100% | maceration of liver slice (slices of liver; 1 mg/ml Proteinase K, 16-24 hr, additive 1%): 100% | maceration of liver slice (slices of liver; 1 mg/ml Proteinase K, 1 hr, additive 0.1%): 100% | maceration of liver slice (slices of liver; 1 mg/ml Proteinase K, 1 hr, additive 1%): 100% | ability to macerate the liver sample (in words) (slices of liver): most effectively macerated the sample | effect on the proteolytic activity of Proteinase K (slices of liver; liver slices): appeared to enhance the proteolytic activity of Proteinase K | Tissue Disaggregation (Liver tissue [2]; [7]): 0 | Tissue Disaggregation (Liver tissue [2]; [8]): 4 | Tissue Disaggregation (Liver tissue [2]; [9]): 0 | Tissue Disaggregation (Liver tissue [2]; [10]): 4 | disaggregation of the tissue sample (in words) (Liver tissue [2]; combination with Proteinase K, 15 and 52 minutes): total disaggregation | disaggregation of the tissue sample (in words) (Liver tissue [2]; surfactant alone, no Proteinase K): no apparent sample disaggregation | release of A260 absorbing material from the sample (Liver tissue [3]): released A260 absorbing material | nucleic acid released, surfactant in reaction composition with aurintricarboxylic acid (Liver tissue [4]): released a large amount of high integrity nucleic acid | Solubility of surfactant [5]: S

CCCCCCCCCCCCCCCC[N+](C)(C)C.[Cl-] [CTACl, cetyltrimethylammonium chloride]
release of A260 absorbing material from the sample (Liver tissue [3]): released A260 absorbing material | high molecular weight nucleic acid by gel electrophoresis (Liver tissue [1]; with either 1-methy-2-pyrolidinone or acridine orange): High molecular weight nucleic acid was also present | nucleic acid released, surfactant in reaction composition with aurintricarboxylic acid (Liver tissue [4]): released a large amount of high integrity nucleic acid

CCCCCCCCCCCC[N+](C)(C)CC.[Br-] [DEDTAB, dodecylethyldimethylammonium bromide]
relative solubility in chaotropic salt solutions (in words) [6, 11]: more soluble than larger surfactants

CCCCCCCCCCCC[N+](C)(C)C.[Cl-] [DTACl, dodecyltrimethylammonium chloride]
relative solubility in chaotropic salt solutions (in words) [6, 11]: more soluble than larger surfactants

CCCCCCCCCCCC[P+](c1ccccc1)(c1ccccc1)c1ccccc1.[Br-] [DTPB, dodecyltriphenylphosphonium bromide]
relative solubility in chaotropic salt solutions (in words) [6]: more soluble than larger surfactants

CCCCCCCCCCCCCCCC[N+](C)(C)C.[Br-] [Hexadecyltrimethylammonium bromide, hexadecyltrimethylammonium bromide]
Tissue Disaggregation (Liver tissue [2]; [7]): 0 | Tissue Disaggregation (Liver tissue [2]; [8]): 0 | Tissue Disaggregation (Liver tissue [2]; [9]): 0 | Tissue Disaggregation (Liver tissue [2]; [10]): 1 | high molecular weight nucleic acid by gel electrophoresis (Liver tissue [1]; all reaction compositions containing the surfactant, FIG. 8): high molecular weight nucleic acid was apparent

CCCCCCCCCCCCOS(=O)(=O)[O-].[Na+] [SDS, sodium dodecyl sulfate]
maceration of liver slice (slices of liver; 1 mg/ml Proteinase K, 2-5 hr, additive 1%): 50% | maceration of liver slice (slices of liver; No Proteinase K, 2-5 hr, additive 1%): 0% | effect on Proteinase K activity on the casein substrate (Proteinase K): enhances the activity of Proteinase K | Tissue Disaggregation (Liver tissue [2]; [7]): 0 | Tissue Disaggregation (Liver tissue [2]; [8]): 3 | Tissue Disaggregation (Liver tissue [2]; [9]): 0 | Tissue Disaggregation (Liver tissue [2]; [10]): 3 | release of A260 absorbing material from the sample (Liver tissue [3]): released A260 absorbing material | nucleic acid released, surfactant in reaction composition with aurintricarboxylic acid (Liver tissue [4]): less nucleic acid was released

CCCCCCCCCC[N+](C)(C)C.[Br-] [Sample D10TAB, decyltrimethylammonium bromide]
relative solubility in chaotropic salt solutions (in words) [6]: more soluble than larger surfactants

CCCCCCCCCCCC(=O)N(C)CC(=O)[O-].[Na+] [Sarkosyl, sodium N-lauroylsacrosinate]
maceration of liver slice (slices of liver; No Proteinase K, 72 hr, additive 2%): 0% | release of A260 absorbing material from the sample (Liver tissue [3]): released A260 absorbing material
